From patent publication US20240368118A1, “CEREBLON BINDING COMPOUNDS, COMPOSITIONS THEREOF, AND METHODS OF TREATMENT THEREWITH” (CELGENE CORPORATION, priority 2021, published 2024)
Counter-ions that a name gives are not always drawn.

Molecular target: T1, AR (Homo sapiens, UniProt P10275)
T1 construct: endogenous in cells; host or cells: VCaP cells
T1 sequence (P10275 1-920): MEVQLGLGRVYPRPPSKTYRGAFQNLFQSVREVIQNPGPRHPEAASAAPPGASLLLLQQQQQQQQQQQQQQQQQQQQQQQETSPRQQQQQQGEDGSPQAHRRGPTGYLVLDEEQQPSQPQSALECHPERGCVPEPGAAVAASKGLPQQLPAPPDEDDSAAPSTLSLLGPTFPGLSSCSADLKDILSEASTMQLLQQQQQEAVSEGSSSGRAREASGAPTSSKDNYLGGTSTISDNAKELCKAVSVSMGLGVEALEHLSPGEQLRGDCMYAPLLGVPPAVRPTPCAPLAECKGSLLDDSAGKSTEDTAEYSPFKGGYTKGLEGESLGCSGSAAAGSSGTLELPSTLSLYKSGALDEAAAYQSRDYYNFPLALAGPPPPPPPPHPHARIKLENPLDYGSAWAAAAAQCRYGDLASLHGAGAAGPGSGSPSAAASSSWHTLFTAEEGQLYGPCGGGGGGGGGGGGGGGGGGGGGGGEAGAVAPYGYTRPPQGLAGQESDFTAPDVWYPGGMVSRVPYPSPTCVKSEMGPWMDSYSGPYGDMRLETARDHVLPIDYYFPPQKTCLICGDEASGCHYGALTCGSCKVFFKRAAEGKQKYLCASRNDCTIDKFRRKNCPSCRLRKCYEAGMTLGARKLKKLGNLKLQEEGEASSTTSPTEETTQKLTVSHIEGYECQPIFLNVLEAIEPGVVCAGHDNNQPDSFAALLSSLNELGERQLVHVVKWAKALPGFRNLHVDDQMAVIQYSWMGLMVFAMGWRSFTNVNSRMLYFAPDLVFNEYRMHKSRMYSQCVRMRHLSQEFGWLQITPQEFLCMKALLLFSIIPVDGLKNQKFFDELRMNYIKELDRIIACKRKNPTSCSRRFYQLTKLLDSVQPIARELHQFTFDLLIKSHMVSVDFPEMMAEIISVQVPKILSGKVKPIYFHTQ
Assay: VCAP AR Degradation Assay
Type: cell-based
Conditions: VCaP cells, 24 h; for DC50: AR ELISA, concentration when AR level = 50% of DMSO control; for Ymin: lowest AR level normalized to DMSO control
Experimental: VCAP AR Degradation Assay. Test compounds were pre-dispensed into a Corning CellBind 96-well clear bottom plate (Cat #3300) using an acoustic dispenser to make a 10-point concentration series at 1:3 dilution for each compound. The final top concentration of each compound was 5 μM. DMSO at a final concentration of 0.1% was used as a control. VCaP cells cultured in DMEM with 8% fetal bovine serum (FBS) were seeded at 50K cells per well in a 200 μL volume into the compound plate and incubated at 37° C. in a C02 incubator for 24 h. The medium was carefully removed from the cells and the plate was placed on ice. One hundred μL of ice-cold 1× cell lysis buffer from Cell Signaling Technologies (Cat #9803) was added to each well of the cells and the plate was incubated at 4° C. on a shaker for 1 h. Fifteen μL of cell lysate was used for AR ELISA detection using a PathScan Total Sandwich AR ELISA kit (Cell Signaling Technology, Cat #12580). AR levels in compound-treated wells were normalized to that of DMSO control and expressed as percent of control (PoC) (y). A Four Parameter Logistic Model (Sigmoidal Dose-Response Model) was used to determine the compound's DC50, and EC50, using the following equation: […]
The lowest measured AR level normalized to DMSO control in response to compound treatment, termed Y value, was used to characterize the compound-mediated AR degradation efficiency.

Row | SMILES | DC50 [nM] | Ymin (class symbols) | Ymin (given as numbers)
1 | CC1(C)C(=O)N(c2ccc(C#N)c(C(F)(F)F)c2)C(=S)N1[C@H]1CC[C@H](OCCN2CCN(CC(=O)Nc3ccc(C4CCC(=O)NC4=O)cc3)[C@@H](C(F)(F)F)C2)CC1 (stereo partly drawn) [Cmpd 23, 2-((R)-4-(2-((trans-4-(3-(4-Cyano-3-(trifluoromethyl)phenyl)-5,5-dimethyl-4-oxo-2-thioxoimidazolidin-1-yl)cyclohexyl)oxy)ethyl)-2-(trifluoromethyl)piperazin-1-yl)-N-(4-(2,6-dioxopiperidin-3-yl)phenyl)acetamide hydrochloride] | 5 to 15 | * (0<Y≤20%) | –
2 | C[C@@H]1CN(CCCC[C@H]2CC[C@H](N3C(=S)N(c4ccc(C#N)c(C(F)(F)F)c4)C(=O)C3(C)C)CC2)C[C@H](C)N1CC(=O)Nc1cccc(C2CCC(=O)NC2=O)c1 (stereo partly drawn) [Cmpd 24, 2-((2R,6S)-4-(4-((trans)-4-(3-(4-Cyano-3-(trifluoromethyl)phenyl)-5,5-dimethyl-4-oxo-2-thioxoimidazolidin-1-yl)cyclohexyl)butyl)-2,6-dimethylpiperazin-1-yl)-N-(3-(2,6-dioxopiperidin-3-yl)phenyl)acetamide] | ≤ 5 | – | 15 % of DMSO control
3 | C[C@@H]1CN(CCCC[C@H]2CC[C@H](N3C(=S)N(c4ccc(C#N)c(C(F)(F)F)c4)C(=O)C3(C)C)CC2)C[C@H](C)N1CC(=O)Nc1cccc(N2CCC(=O)NC2=O)c1 [Cmpd 25, 2-((2R,6S)-4-(4-((trans)-4-(3-(4-Cyano-3-(trifluoromethyl)phenyl)-5,5-dimethyl-4-oxo-2-thioxoimidazolidin-1-yl)cyclohexyl)butyl)-2,6-dimethylpiperazin-1-yl)-N-(3-(2,4-dioxotetrahydropyrimidin-1(2H)-yl)phenyl)acetamide] | 5 to 15 | – | 24 % of DMSO control
4 | C[C@@H]1CN(CCCC[C@H]2CC[C@H](N3C(=S)N(c4ccc(C#N)c(C(F)(F)F)c4)C(=O)C3(C)C)CC2)C[C@H](C)N1CC(=O)Nc1ccc(N2CCC(=O)NC2=O)cc1 [Cmpd 26, 2-((2R,6S)-4-(4-((trans)-4-(3-(4-Cyano-3-(trifluoromethyl)phenyl)-5,5-dimethyl-4-oxo-2-thioxoimidazolidin-1-yl)cyclohexyl)butyl)-2,6-dimethylpiperazin-1-yl)-N-(4-(2,4-dioxotetrahydropyrimidin-1(2H)-yl)phenyl)acetamide] | 5 to 15 | – | 25 % of DMSO control
5 | C[C@@H]1C[C@H](CCO[C@H]2CC[C@H](N3C(=S)N(c4cnc(C#N)c(C(F)(F)F)c4)C(=O)C3(C)C)CC2)C[C@H](C)N1CC(=O)Nc1ccc(C2CCC(=O)NC2=O)cc1 (stereo partly drawn) [Cmpd 27, 2-((2R,4r,6S)-4-(2-(((trans)-4-(3-(6-Cyano-5-(trifluoromethyl)pyridin-3-yl)-5,5-dimethyl-4-oxo-2-thioxoimidazolidin-1-yl)cyclohexyl)oxy)ethyl)-2,6-dimethylpiperidin-1-yl)-N-(4-(2,6-dioxopiperidin-3-yl)phenyl)acetamide] | ≤ 5 | – | 11 % of DMSO control
6 | CC1(C)C(=O)N(c2cnc(C#N)c(C(F)(F)F)c2)C(=S)N1[C@H]1CC[C@H](OCCN2CCN(CC(=O)Nc3ccc(C4CCC(=O)NC4=O)cc3)[C@@H](C(F)(F)F)C2)CC1 (stereo partly drawn) [Cmpd 28, 2-((R)-4-(2-(((trans)-4-(3-(6-Cyano-5-(trifluoromethyl)pyridin-3-yl)-5,5-dimethyl-4-oxo-2-thioxoimidazolidin-1-yl)cyclohexyl)oxy)ethyl)-2-(trifluoromethyl)piperazin-1-yl)-N-(4-(2,6-dioxopiperidin-3-yl)phenyl)acetamide] | ≤ 5 | – | 20 % of DMSO control
7 | C[C@@H]1C[C@@H](CCO[C@H]2CC[C@H](N3C(=S)N(c4cnc(C#N)c(C(F)(F)F)c4)C(=O)C3(C)C)CC2)C[C@H](C)N1CC(=O)Nc1ccc(C2CCC(=O)NC2=O)cc1 (stereo partly drawn) [Cmpd 29, 2-((2R,4s,6S)-4-(2-(((trans)-4-(3-(6-Cyano-5-(trifluoromethyl)pyridin-3-yl)-5,5-dimethyl-4-oxo-2-thioxoimidazolidin-1-yl)cyclohexyl)oxy)ethyl)-2,6-dimethylpiperidin-1-yl)-N-(4-(2,6-dioxopiperidin-3-yl)phenyl)acetamide] | ≤ 5 | – | 15 % of DMSO control
8 | C[C@@H]1CN(CCCC[C@H]2CC[C@H](N3C(=S)N(c4ccc(C#N)c(C(F)(F)F)c4)C(=O)C3(C)C)CC2)C[C@H](C)N1CC(=O)Nc1ccc(C2CCC(=O)NC2=O)cc1 (stereo partly drawn) [Cmpd 30, 2-((2R,6S)-4-(4-((trans)-4-(3-(4-Cyano-3-(trifluoromethyl)phenyl)-5,5-dimethyl-4-oxo-2-thioxoimidazolidin-1-yl)cyclohexyl)butyl)-2,6-dimethylpiperazin-1-yl)-N-(4-(2,6-dioxopiperidin-3-yl)phenyl)acetamide] | ≤ 5 | – | 20 % of DMSO control
9 | CC1(C)C(=O)N(c2ccc(C#N)c(C(F)(F)F)c2)C(=S)N1[C@H]1CC[C@H](OCCCN2CCN(CC(=O)Nc3cccc(C4CCC(=O)NC4=O)c3)[C@@H](C(F)(F)F)C2)CC1 (stereo partly drawn) [Cmpd 31, 2-((R)-4-(3-(((trans)-4-(3-(4-Cyano-3-(trifluoromethyl)phenyl)-5,5-dimethyl-4-oxo-2-thioxoimidazolidin-1-yl)cyclohexyl)oxy)propyl)-2-(trifluoromethyl)piperazin-1-yl)-N-(3-(2,6-dioxopiperidin-3-yl)phenyl)acetamide] | ≤ 5 | – | 21 % of DMSO control
10 | CC1(C)C(=O)N(c2cnc(C#N)c(C(F)(F)F)c2)C(=S)N1[C@H]1CC[C@H](OCCCN2CCN(CC(=O)Nc3cccc(C4CCC(=O)NC4=O)c3)[C@@H](C(F)(F)F)C2)CC1 (stereo partly drawn) [Cmpd 32, 2-((R)-4-(3-(((trans)-4-(3-(6-Cyano-5-(trifluoromethyl)pyridin-3-yl)-5,5-dimethyl-4-oxo-2-thioxoimidazolidin-1-yl)cyclohexyl)oxy)propyl)-2-(trifluoromethyl)piperazin-1-yl)-N-(3-(2,6-dioxopiperidin-3-yl)phenyl)acetamide] | ≤ 5 | – | 20 % of DMSO control
11 | CC1(C)C(=O)N(c2cnc(C#N)c(C(F)(F)F)c2)C(=S)N1[C@H]1CC[C@H](CCCN2CCN(CC(=O)Nc3ccc(C4CCC(=O)NC4=O)cc3)[C@@H](C(F)(F)F)C2)CC1 (stereo partly drawn) [Cmpd 33, 2-((R)-4-(3-((trans)-4-(3-(6-Cyano-5-(trifluoromethyl)pyridin-3-yl)-5,5-dimethyl-4-oxo-2-thioxoimidazolidin-1-yl)cyclohexyl)propyl)-2-(trifluoromethyl)piperazin-1-yl)-N-(4-(2,6-dioxopiperidin-3-yl)phenyl)acetamide] | 5 to 15 | – | 17 % of DMSO control
12 | CC1(C)C(=O)N(c2cnc(C#N)c(C(F)(F)F)c2)C(=S)N1[C@H]1CC[C@H](OCCCN2CCN(CC(=O)Nc3ccc(C4CCC(=O)NC4=O)cc3)[C@@H](C(F)(F)F)C2)CC1 (stereo partly drawn) [Cmpd 34, 2-((R)-4-(3-(((trans)-4-(3-(6-Cyano-5-(trifluoromethyl)pyridin-3-yl)-5,5-dimethyl-4-oxo-2-thioxoimidazolidin-1-yl)cyclohexyl)oxy)propyl)-2-(trifluoromethyl)piperazin-1-yl)-N-(4-(2,6-dioxopiperidin-3-yl)phenyl)acetamide] | ≤ 5 | – | 12 % of DMSO control
13 | CC1(C)C(=O)N(c2ccc(C#N)c(C(F)(F)F)c2)C(=S)N1[C@H]1CC[C@H](OCCCN2CCN(CC(=O)Nc3ccc(C4CCC(=O)NC4=O)cc3)[C@@H](C(F)(F)F)C2)CC1 (stereo partly drawn) [Cmpd 35, 2-((R)-4-(3-(((trans)-4-(3-(4-Cyano-3-(trifluoromethyl)phenyl)-5,5-dimethyl-4-oxo-2-thioxoimidazolidin-1-yl)cyclohexyl)oxy)propyl)-2-(trifluoromethyl)piperazin-1-yl)-N-(4-(2,6-dioxopiperidin-3-yl)phenyl)acetamide] | ≤ 5 | – | 21 % of DMSO control
